Laboratory results: the supplement of paper PMC11451515

Test system: P12-Ichikawa
Assay: cell viability relative to DMSO control; higher = less cytotoxic
Details: 48 h
Method in brief: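 NOMO1 or SEM (500 cells/well) or P12-Ichikawa (1000 cells/well) leukemia cells were adapted for at least four passages in each medium. They were seeded in 1536-well plates (5 μl) and pin-dosed with library compounds in DMSO over an 11-point threefold series, 47 μM to 0.79 nM. CellTiter-Glo One luminescence was read after 48 h at 37°C. Viability is the per-plate percentage relative to DMSO wells, with cell-free wells as background.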

[1] = HPLM + 10% dialyzed FBS, 0.000781 µM
[2] = HPLM + 10% dialyzed FBS, 0.00234 µM
[3] = HPLM + 10% dialyzed FBS, 0.00702 µM
[4] = HPLM + 10% dialyzed FBS, 0.0211 µM
[5] = HPLM + 10% dialyzed FBS, 0.0632 µM
[6] = HPLM + 10% dialyzed FBS, 0.19 µM
[7] = HPLM + 10% dialyzed FBS, 0.569 µM
[8] = HPLM + 10% dialyzed FBS, 1.71 µM
[9] = HPLM + 10% dialyzed FBS, 5.12 µM
[10] = HPLM + 10% dialyzed FBS, 15.4 µM
[11] = HPLM + 10% dialyzed FBS, 46.1 µM
[12] = RPMI 5 mM glucose + 10% dialyzed FBS, 0.000781 µM
[13] = RPMI 5 mM glucose + 10% dialyzed FBS, 0.00234 µM
[14] = RPMI 5 mM glucose + 10% dialyzed FBS, 0.00702 µM
[15] = RPMI 5 mM glucose + 10% dialyzed FBS, 0.0211 µM
[16] = RPMI 5 mM glucose + 10% dialyzed FBS, 0.0632 µM
[17] = RPMI 5 mM glucose + 10% dialyzed FBS, 0.19 µM
[18] = RPMI 5 mM glucose + 10% dialyzed FBS, 0.569 µM
[19] = RPMI 5 mM glucose + 10% dialyzed FBS, 1.71 µM
[20] = RPMI 5 mM glucose + 10% dialyzed FBS, 5.12 µM
[21] = RPMI 5 mM glucose + 10% dialyzed FBS, 15.4 µM
[22] = RPMI 5 mM glucose + 10% dialyzed FBS, 46.1 µM
[23] = RPMI 5 mM glucose + 10% FBS, 0.000781 µM
[24] = RPMI 5 mM glucose + 10% FBS, 0.00234 µM
[25] = RPMI 5 mM glucose + 10% FBS, 0.00702 µM
[26] = RPMI 5 mM glucose + 10% FBS, 0.0211 µM
[27] = RPMI 5 mM glucose + 10% FBS, 0.0632 µM
[28] = RPMI 5 mM glucose + 10% FBS, 0.19 µM
[29] = RPMI 5 mM glucose + 10% FBS, 0.569 µM
[30] = RPMI 5 mM glucose + 10% FBS, 1.71 µM
[31] = RPMI 5 mM glucose + 10% FBS, 5.12 µM
[32] = RPMI 5 mM glucose + 10% FBS, 15.4 µM
[33] = RPMI 5 mM glucose + 10% FBS, 46.1 µM

Row | Structure (SMILES) | cell viability [1] | cell viability [2] | cell viability [3] | cell viability [4] | cell viability [5] | cell viability [6] | cell viability [7] | cell viability [8] | cell viability [9] | cell viability [10] | cell viability [11] | cell viability [12] | cell viability [13] | cell viability [14] | cell viability [15] | cell viability [16] | cell viability [17] | cell viability [18] | cell viability [19] | cell viability [20] | cell viability [21] | cell viability [22] | cell viability [23] | cell viability [24] | cell viability [25] | cell viability [26] | cell viability [27] | cell viability [28] | cell viability [29] | cell viability [30] | cell viability [31] | cell viability [32] | cell viability [33]
1 | CN(C)CCC=C1C2=C(C=CC=C2)\C=C/C3=C1C=CC=C3 | 109% | 118% | 114% | 117% | 120% | 123% | 106% | 105% | 96.9% | 105% | 87.1% | 115% | 109% | 105% | 115% | 119% | 107% | 111% | 102% | 106% | 105% | 84.1% |  |  |  |  |  |  |  |  |  |  | 
2 | CCOP(=O)(OCC)C(C)NC(=O)N(CCCl)N=O (centres undefined) | 122% | 116% | 132% | 119% | 124% | 130% | 123% | 123% | 128% | 130% | 141% |  |  |  |  |  |  |  |  |  |  |  |  |  |  |  |  |  |  |  |  |  | 
3 | CCCCc1oc2ccc(NS(C)(=O)=O)cc2c1C(=O)c1ccc(OCCCN(CCCC)CCCC)cc1 | 98.3% | 99% | 117% | 108% | 107% | 108% | 110% | 111% | 106% | 12.1% | 15% | 93.3% | 99.9% | 102% | 109% | 108% | 110% | 104% | 109% | 95.7% | 20.9% | 10.3% | 96% | 117% | 113% | 115% | 118% | 111% | 112% | 105% | 98.1% | 15.5% | 12.7%
4 | CC(C)c1ccc2oc3nc(N)c(C(=O)O)cc3c(=O)c2c1 | 120% | 119% | 119% | 124% | 130% | 132% | 128% | 131% | 125% | 129% | 118% |  |  |  |  |  |  |  |  |  |  |  |  |  |  |  |  |  |  |  |  |  | 
5 | CN(C)c1ccc(C(=O)NCCCCCCC(=O)NO)cc1 | 107% | 102% | 114% | 104% | 110% | 111% | 102% | 44% | 1.14% | 0.537% | 1.62% | 94.9% | 105% | 113% | 116% | 122% | 121% | 98.6% | 25.4% | 1.41% | 0.539% | 1.68% | 101% | 104% | 109% | 110% | 116% | 108% | 99.5% | 46.9% | 1.46% | 0.517% | 1.9%
6 | CC1(C)O[C@H]2CC(=O)OC[C@]23[C@H]2CC[C@@]4(C)[C@H](c5ccoc5)OC(=O)[C@H]5O[C@]54[C@]2(C)C(=O)C[C@@H]13 | 95.9% | 107% | 101% | 105% | 110% | 110% | 115% | 102% | 115% | 99.5% | 110% | 90.8% | 96.2% | 104% | 97.6% | 105% | 95.2% | 101% | 100% | 96.1% | 98.2% | 96.7% | 88.3% | 102% | 102% | 93.8% | 98.4% | 107% | 106% | 95.6% | 107% | 105% | 112%
7 | CCCn1c(=O)c2[nH]c(-c3cnn(Cc4cccc(C(F)(F)F)c4)c3)nc2n(CC)c1=O | 108% | 106% | 122% | 112% | 112% | 115% | 109% | 106% | 88.1% | 83.3% | 84.7% | 114% | 109% | 105% | 108% | 107% | 109% | 109% | 103% | 81.4% | 73.6% | 68.8% | 115% | 124% | 123% | 137% | 125% | 118% | 85.6% | 73% | 65.1% | 74.6% | 72.9%
8 | CNC(=O)c1c(F)cccc1Nc1nc(Nc2cc3c(cc2OC)CCN3C(=O)CN(C)C)nc2[nH]ccc12 | 91.4% | 97% | 110% | 110% | 111% | 109% | 112% | 108% | 81.5% | 87.4% | 51% | 110% | 117% | 120% | 119% | 129% | 122% | 121% | 118% | 110% | 103% | 43.6% | 112% | 113% | 105% | 123% | 114% | 122% | 120% | 110% | 113% | 113% | 51.3%
